# According to patent US8242152B2, “Use of 4-[(4-thiazolyl)phenoxy]alkoxy-benzamidine derivatives for the prophylaxis and treatment of osteoporosis” (Dong Wha Pharmaceutical Co., Ltd., priority 2001, dated 2012):
# “And” between values parts separate entries of the source, which are not always exact repeats. Identical values can stand only once.
# Key:
# ovariectomized ddY mice = test: Prophylactic effects in ovariectomized ddY mouse model (estrogen-deficient osteoporosis); assay type: in vivo; conditions: for histological profiles of epiphyseal regions of right tibia and femur: FIG. 11
# Procedure: The effects of a drug would be based on histomorphometric changes of trabecular bone and thickness cortical bone in this model.
# The objective of present study is to observe the prophylactic effect of DW1350MSA, and administration of drug was initiated 3 days after ovariectomy for prophylaxis study.
# (§1) Twenty-five female ddY mice (6-wk old upon receipt, SLC, Japan) were used after acclimatization for 7 days. Animals were allocated 5 per polycarbonate cage in a temperature (20-25° C.) and humidity (30-35%) controlled room. Light:dark cycle was 12 hr:12 hr and feed (Samyang, Korea) and water were supplied free to access. 20 mice were ovariectomized and 5 mice were sham operated. For prophylaxis study, treatment was initiated 3 days after ovariectomy and then each sample was administrated for 6 weeks.
# DW1350MSA was dissolved in injectable distilled water and administered at a dosage volume of 10 ml/kg by oral gavage.
# 3) Operation • A. Sham operation: Bilateral ovaries were exposed by incision of skin and abdominal muscles, (about 3 cm) after that closed by skin suture. • B. Ovariectomy: After exposure of bilateral ovaries, they were removed. After that closed by routine methods. • C. Operation was conduct under Ketamine hydrochloride (M.W.=256.8; 23076-35-9, ICN Biochemicals Inc., USA) and Xylazine hydrochloride (M.W.=274.19; 116-00512, Wako Pure Chemical Industries Ltd., Japan) anesthesia.
# After that, embedded in paraffin, sectioned (3˜4 um) and stained with hematoxylin-eosin stain.
# Histomorphometric changes of tibia and femur were evaluated. All histomorphometric indices including trabecular bone volume (TBV, %), thickness of trabecular bone (Tbt), trabecular bone number (Tbn), and length of trabeculer bone (Tbl) were calculated using automated image analysis (analysis Image Processing; SIS, Germany) under magnification 200 (×200) of microscopy (Zeiss, Germany) in the epiphyseal regions of right tibia and/or femur. In addition, cortical bone thickness (Cbt) was measured in mid-shaft region of right tibia and femur. […] Trabecular bone volume was calculated as percentage levels. • B. Measurement of histomorphometric index of trabecular bone: Thickness of trabecular bone (Tbt), trabecular bone number (Tbn), and length of trabecular bone (Tbl) were calculated using automated image analysis in the epiphyseal regions of right tibia and/or femur. Tbt and Tbl were calculated as um levels, and Tbn were calculated as number/whole sectional part of epiphyseal regions levels. • C. Thickness of cortical bone (Cbt): Cortical bone thickness was detected in mid-shaft regions of right tibia and/or femur, and they were calculated using automated image analyzer at prepared histological samples.
# (§2) All data was calculated as mean±S.D. Statistical analyses was conducted using Mann-Whitney U-Wilcoxon Rank Sum W test (M-W test) with SPSS for Windows (Release 6.1.3., SPSS Inc., USA).
# [1] = tested on: sciatic nerve neurectomized ddY mice; test: Prophylactic effects in neurectomized ddY mouse model (immobilization osteoporosis); assay type: in vivo; conditions: for TBV (%): epiphyseal regions of right tibia; for Cbt (um): mid-shaft regions of right tibia; for histological profiles of epiphyseal regions: FIG. 10, Hematoxylin-Eosin; for TBV % compared to control group (in words) / cortical bone thickness compared to control group (in words): right tibia, Fosamax 1 mg/kg, DW1350MSA 10 and 50 mg/kg
# Excerpt: The effects of a drug would be based on histomorphometric changes of trabecular bone and thickness of cortical bone in this model.
# The objective of the present study is to observe the anti-osteoporotic potential of DW1350MSA, and administration of the drug was initiated 2 days after neurectomy for prophylaxis study.
# as §1, with “allocated to” for “allocated”, “were neurectomized” for “were ovariectomized”, “For the” for “For”, “initiated 2” for “initiated 3”, “after neurectomy” for “after ovariectomy”, “for 4” for “for 6”
# DW1350MSA was dissolved in injectable distilled water and administered at a dosage volume of 10 ml/kg by oral gavage. The administered dose and schedule of these drugs are shown as Table 12.
# 3) Operation • A. Sham operation: The right side of the sciatic nerve was exposed by incision of skin and hip muscles, (about 1 cm) after that closed by skin suture. • B. neurectomy: After exposure of the right side of the sciatic nerve, about 1 mm of sciatic nerve was removed. After that closed by routine methods. • C. Operation was conducted under Ketamine hydrochloride (M.W.=256.8; 23076-35-9, ICN Biochemicals Inc., USA) and Xylazine hydrochloride (M.W.=274.19; 116-00512, Wako Pure Chemical Industries Ltd., Japan) anesthesia.
# After that, embedded in paraffin, sectioned (3˜4 um) and stained with hematoxylin-eosin strain.
# Mid-shaft cortical bone of tibia, and trabecular bone volume % of tibia were evaluated. In addition, histological profiles of epiphyseal regions of right tibia and femur were also observed. • A. Measurement of trabecular bone volume (TBV) Trabecular bone volume was calculated using automated image analysis (analySIS Image Processing; SIS, Germany) under magnification […] (×200) of microscopy (Zeiss, Germany) in the uniform area of epiphyseal regions of the right tibia and/or femur (growth plate regions were excluded). Trabecular bone volume was calculated as percentage levels. • B. Thickness of cortical bone (Cbt): Cortical bone thickness was detected in mid-shaft regions of right tibia and/or femur, and they were calculated using an automated image analyzer (analysis Image Processing; SIS, Germany) under magnification 200 (×200) of microscopy (Zeiss, Germany) at prepared histological samples. The thickness was detected as um levels. • C.
# as §2
# rabbit osteoclasts = test: TRAP(+) MNC formation in isolated rabbit osteoclast cultures, single treatment without LTB4 (Example 6); assay type: cell-based; conditions: 100 nM LTB4, 48 hours, dentin slices
# Procedure: Rabbit osteoclasts were isolated as described by Victoria Tai's report (Doctoral Dissertation, 1997, Graduate Department of Pharmacology, University of Toronto) and Rraser P. Coxon et al. (Methods in Molecular Medicine, vol 80). Neonatal rabbits (New Zealand White) were sacrificed by ether-inhaling method under a hood. The removed long bones were dissected free of attached soft tissues and placed into ice-cold PBS. The long bones were cut longitudinally and mechanically curetted in 10 ml medium 199 with antibiotics (10 ug/ml penicillin G and 50 ug/ml gentamycin) in a glass Petri dish. Each bone was curetted with a scalpel blade and was finely minced. The fragments were then vigorously agitated by pipetting up and down using a pasteur pipette and vortex-mixed for 30 seconds. The fragments were allowed to settle and the cell suspension was then transferred to a 50 ml tube and the previous step repeated three times to a total volume of 40 ml. The bone fragments were allowed to settle (>1 min). The cell suspension was then transferred to a new 50 ml tube, passed through a 40 um cell strainer and centrifuged at 200 g for 8 minutes. The supernatant was removed and the pellet was immediately resuspended in α-MEM with 2% FBS (bicarbonate buffered medium).
# 40 uL droplets of osteoclast-containing suspensions were plated onto 60 mm tissue culture plastic dishes or on dentine slices in 96-well microtiter plates in 2% medium. The cells were allowed ninety minutes for attachment before the addition of 2 mL α-MEM with 2% FBS. After 24 hr culture, cells were washed to remove non-adherent cells and replaced with fresh medium as describes below.
# After 24 hr in culture, the medium was replaced with fresh medium containing control, LTB4 receptor antagonists (1000 nM), DW1350 (10, 100 and 1000 nM) or LTB4 (100 nM) and the cultures were continued for an additional 48 hrs.
# All cells were cultured at 37° C. in a humidified atmosphere of 95% air and 5% CO2 in bicarbonate buffered medium at pH 7.4.
# Differentiated osteoclasts are multinucleated cells and have specific enzyme activity, such as ‘tartrate-resistant acid phosphatase (TRAP)’. Therefore, Osteoclast formation was determined by counting the number of TRAP-positive multinucleated cells (TRAP(+) MNCs).
# After culture, the cells were fixed with 10% neutral buffered formalin for 30 min at 4° C., washed twice in distilled water and stained for TRAP activity by incubating with substrate. The number of TRAP(+)MNC with more than 2 nuclei was counted under photomicroscope.
# Results were expressed as mean number of TRAP(+)MNC±SD of All experiments were done at least twice. Statistical analysis was performed for each experiment by student t-test.
# [2] = right femur, 10 mg/kg oral once a day for 6 weeks (F10, D10)
# [3] = right tibia, 10 mg/kg oral once a day for 6 weeks (F10, D10)
# [4] = tibia and femur, DW1350MSA 10 and 50 mg/kg, Fosamax 10 mg/kg
# [5] = 1 mg/kg oral once a day for 4 weeks
# [6] = right femur, 50 mg/kg oral once a day for 6 weeks (D50)
# [7] = right tibia, 50 mg/kg oral once a day for 6 weeks (D50)
# [8] = 10 mg/kg oral once a day for 4 weeks
# [9] = 50 mg/kg oral once a day for 4 weeks
smiles,measurement,setting,value
"NCCCC(O)(P(=O)(O)O)P(=O)(O)O [Fosamax, Alendronate]",histological profiles of epiphyseal regions of right tibia and femur,ovariectomized ddY mice,more numerous extended trabecular bones were demonstrated compared to that of Control
same,"Cbt, cortical bone thickness",ovariectomized ddY mice; [2],53.00 ± 23.82 um
same,"TBV, trabecular bone volume",ovariectomized ddY mice; [2],58.26 ± 5.77 %
same,"Tbl, trabecular bone length",ovariectomized ddY mice; [2],460.80 ± 260.64 ## um
same,"Tbn, trabecular bone number",ovariectomized ddY mice; [2],23.60 ± 2.97 # number/epiphyseal
same,"Tbt, trabecular bone thickness",ovariectomized ddY mice; [2],33.00 ± 12.45 um
same,"Cbt, cortical bone thickness",ovariectomized ddY mice; [3],59.80 ± 15.55 um
same,"TBV, trabecular bone volume",ovariectomized ddY mice; [3],47.56 ± 7.23 # %
same,"Tbl, trabecular bone length",ovariectomized ddY mice; [3],550.00 ± 74.98 ## um
same,"Tbn, trabecular bone number",ovariectomized ddY mice; [3],12.60 ± 4.98 number/epiphyseal
same,"Tbt, trabecular bone thickness",ovariectomized ddY mice; [3],83.20 ± 39.86 # um
same,effect on decrease of Cbt induced by ovariectomy (summary in words),ovariectomized ddY mice; [4],no favorable effect to changes of Cbt
same,effect on increase of Ocn induced by ovariectomy (summary in words),ovariectomized ddY mice; [4],no favorable effect to changes of Ocn
same,TBV (%),[1]; [5],21.81 ± 4.35 # %
same,Cbt (um),[1]; [5],125.75 ± 36.01 um
same,histological profiles of epiphyseal regions,[1],more numerous extended trabecular bones were demonstrated compared to that of Control group
same,TBV % compared to control group (in words),[1],significantly (p<0.01) increased compared to that of the control group
same,cortical bone thickness compared to control group (in words),[1],significantly increased compared to that of the control group but significances were not demonstrated
CS(=O)(=O)O.Cc1nc(-c2ccc(OCCCCCOc3ccc(C(N)=NO)cc3)cc2)c(C(C)C)s1 [DW1350MSA],histological profiles of epiphyseal regions of right tibia and femur,ovariectomized ddY mice,"relatively well developed, especially in width and length, trabecular bone was detected"
same,"Cbt, cortical bone thickness",ovariectomized ddY mice; [2],118.00 ± 16.79 um
same,"Ocn, osteoclast cell number",ovariectomized ddY mice; [2],5.00 ± 1.58 number
same,"TBV, trabecular bone volume",ovariectomized ddY mice; [2],36.97 ± 9.59 # %
same,"Tbl, trabecular bone length",ovariectomized ddY mice; [2],635.60 ± 190.76 um
same,"Tbn, trabecular bone number",ovariectomized ddY mice; [2],19.00 ± 1.58 number/epiphyseal
same,"Tbt, trabecular bone thickness",ovariectomized ddY mice; [2],48.60 ± 10.50 ## um
same,"Cbt, cortical bone thickness",ovariectomized ddY mice; [6],140.26 ± 33.16 um
same,"Ocn, osteoclast cell number",ovariectomized ddY mice; [6],4.40 ± 1.34 number
same,"TBV, trabecular bone volume",ovariectomized ddY mice; [6],41.91 ± 6.04 # %
same,"Tbl, trabecular bone length",ovariectomized ddY mice; [6],743.40 ± 187.00 um
same,"Tbn, trabecular bone number",ovariectomized ddY mice; [6],21.80 ± 1.92 number/epiphyseal
same,"Tbt, trabecular bone thickness",ovariectomized ddY mice; [6],68.00 ± 21.41 um
same,"Cbt, cortical bone thickness",ovariectomized ddY mice; [3],136.80 ± 26.58 # um
same,"Ocn, osteoclast cell number",ovariectomized ddY mice; [3],5.40 ± 1.52 # number
same,"TBV, trabecular bone volume",ovariectomized ddY mice; [3],35.20 ± 4.90 # %
same,"Tbl, trabecular bone length",ovariectomized ddY mice; [3],605.00 ± 160.44 ## um
same,"Tbn, trabecular bone number",ovariectomized ddY mice; [3],11.80 ± 3.11 # number/epiphyseal
same,"Tbt, trabecular bone thickness",ovariectomized ddY mice; [3],60.80 ± 13.20 # um
same,"Cbt, cortical bone thickness",ovariectomized ddY mice; [7],170.40 ± 44.73 um
same,"Ocn, osteoclast cell number",ovariectomized ddY mice; [7],3.60 ± 1.14 # number
same,"TBV, trabecular bone volume",ovariectomized ddY mice; [7],38.42 ± 4.67 # %
same,"Tbl, trabecular bone length",ovariectomized ddY mice; [7],679.20 ± 249.47 um
same,"Tbn, trabecular bone number",ovariectomized ddY mice; [7],11.80 ± 3.96 # number/epiphyseal
same,"Tbt, trabecular bone thickness",ovariectomized ddY mice; [7],112.60 ± 45.76 um
same,effect on decrease of Cbt induced by ovariectomy (summary in words),ovariectomized ddY mice; [4],significant effect to inhibit the decrease of Cbt induced by ovariectomy and the efficacy was higher than that of Fosamax
same,effect on decrease of TBV induced by ovariectomy (summary in words),ovariectomized ddY mice; [4],some significance effect to inhibit the decrease of TBV induced by ovariectomy but the efficacy was somewhat lower than that of Fosamax
same,effect on decrease of Tbl induced by ovariectomy (summary in words),ovariectomized ddY mice; [4],significant effect to inhibit the decrease of Tbl induced by ovariectomy and the efficacy was somewhat higher than that of Fosamax
same,effect on decrease of Tbn induced by ovariectomy (summary in words),ovariectomized ddY mice; [4],significance effect to inhibit the decrease of Tbn induced by ovariectomy and the efficacy was somewhat lower than that of Fosamax
same,effect on decrease of Tbt induced by ovariectomy (summary in words),ovariectomized ddY mice; [4],significance effect to inhibit the decrease of Tbt induced by ovariectomy and the efficacy was somewhat higher than that of Fosamax
same,effect on increase of Ocn induced by ovariectomy (summary in words),ovariectomized ddY mice; [4],significant effect to inhibit the increase of Ocn induced by ovariectomy and the efficacy was higher than that of Fosamax
same,TBV (%),[1]; [8],25.75 ± 2.87 # %
same,Cbt (um),[1]; [8],171.36 ± 18.60 # um
same,TBV (%),[1]; [9],33.29 ± 4.96 %
same,Cbt (um),[1]; [9],193.87 ± 12.50 um
same,histological profiles of epiphyseal regions,[1],"relatively well developed, especially in width and number, trabecular bone was detected"
same,TBV % compared to control group (in words),[1],significant dose-dependent (p<0.01) increase of trabecular bone volume %
same,cortical bone thickness compared to control group (in words),[1],significant dose-dependent (p<0.01) increase of cortical bone thickness
"CCCCC/C=C\C[C@@H](O)/C=C/C=C/C=C\[C@@H](O)CCCC(=O)O [LTB4, leukotriene-B4]",increase in the number of TRAP-positive osteoclasts compared to the control group,rabbit osteoclasts,30˜40% and 40%
